In PMC8568920, “Serum apolipoprotein A-I potentiates the therapeutic efficacy of lysocin E against Staphylococcus aureus” (Nature Communications, 2021):
Values after ≈ are worked out from the molar mass of the structure shown. Where a SMILES comes first, the peptide text is derived from it. Bridges are numbered along the chain shown (N, C = ends). [ ]: non-standard residue; d: D form. The star is where a group is joined. Hexanoyl(3R-OH,5-Me) = CC(C)C[C@@H](O)CC(=O)*; dNMeF = CN[C@H](Cc1ccccc1)C(=O)O

Assays:
[1] = biological target: T1, rhApoA-I ∆NM (Homo sapiens, UniProt P02647, DEL170-184); test: Bio-layer interferometry, binding to rhApoA-I ∆NM variant; conditions: BLI; biotinylated lysocin E on streptavidin biosensor; 2.5 µM protein
T1 construct: 1 65 146 160 185 243; made in house; host or cells: E. coli BL21(DE3)/pLysS, pET20b (pET-hApo∆NM)
T1 sequence (P02647 with tags, fused parts or gaps DEL170-184): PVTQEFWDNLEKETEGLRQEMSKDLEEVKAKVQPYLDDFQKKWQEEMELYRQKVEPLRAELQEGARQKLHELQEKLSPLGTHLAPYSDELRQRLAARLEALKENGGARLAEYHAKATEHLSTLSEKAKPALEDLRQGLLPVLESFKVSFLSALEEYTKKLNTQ
Procedure: Bio-layer interferometry (BLI) measurements were performed on a BLItz system (ForteBio, Fremont, CA, USA) maintained at room temperature. Kinetic analyses were performed using BLItz Pro ver. 1.2.1.5 (ForteBio). The biotinylated ligand, diluted to 0.1 mg ml^−1 in BLItz buffer (0.05% [v/v] Tween-20 in PBS), was immobilised on a streptavidin biosensor and the kinetic analysis was performed by running BLItz buffer for 300 s each, in the presence and absence of analyte for association and dissociation, respectively. Biotinylated menaquinone (5) and biotinylated lysocin E derivatives (3 and 4) were synthesised as described in the Supplementary Information (Supplementary Figs. 7–15).

[2] = system: MRSA; test: microbe, parasite or virus in culture
Procedure: (§1) The antimicrobial activities of the compounds were measured using the microdilution method. Measurement of the bactericidal activity of lysocin E (0.25 µg ml^−1) and nisin (2 µg ml^−1) with or without ApoA-I was performed according to the National Committee for Clinical Laboratory Standards method. […] For the ∆menA and ∆menB strains, TSB medium was used instead of cation-adjusted-Mueller Hinton broth (CA-MHB) in the microdilution method. Sera and ApoA-I, II were added to the bacterial culture before distributing them into 96-well plates. ApoA-I and ApoA-II antimicrobial activity were evaluated using the RN4220 strain. The protein binding rate of lysocin E against human plasma was determined by a rapid equilibrium dialysis device (Thermo Fisher Scientific, Waltham, MA, USA) according to the manufacturer’s instructions.

[3] = in vitro; conditions: human plasma
Procedure: as §1

[4] = system: S. aureus Newman
Procedure: as §1

[5] = system: S. aureus (MRSA) MR5 (Clinical isolate)
Procedure: as §1

[6] = system: S. aureus (MRSA) JE2 (USA300)
Procedure: as §1

[7] = system: S. aureus Smith ATCC13709
Procedure: as §1

[8] = system: S. aureus (MRSA) MR1 (Clinical isolate)
Procedure: as §1

[9] = system: Bacillus cereus JCM20037
Procedure: as §1

[10] = system: S. aureus (MRSA) MRSA4
Procedure: as §1

[11] = system: S. aureus (MRSA) MR4 (Clinical isolate)
Procedure: as §1

[12] = system: Bacillus subtilis JCM2499
Procedure: as §1

[13] = system: S. aureus (MRSA) MR2 (Clinical isolate)
Procedure: as §1

[14] = system: S. aureus (MRSA) MR6 (Clinical isolate)
Procedure: as §1

[15] = system: Staphylococcus pseudintermedius JCM17571
Procedure: as §1

[16] = system: Staphylococcus haemolyticus JCM2416
Procedure: as §1

CC[C@H](C)[C@@H]1NC(=O)[C@@H](Cc2c[nH]c3ccccc23)NC(=O)[C@@H](CCC(N)=O)NC(=O)[C@H](CCC(=O)O)NC(=O)[C@@H](CCCNC(=N)N)NC(=O)[C@H](CC(C)C)NC(=O)[C@@H](Cc2ccccc2)N(C)C(=O)CNC(=O)[C@H](CO)NC(=O)[C@@H](CCCNC(=N)N)NC(=O)[C@@H](NC(=O)C[C@H](O)CC(C)C)[C@@H](C)OC(=O)[C@H]([C@@H](C)O)NC1=O [Lysocin E, lysocin E] ({Hexanoyl(3R-OH,5-Me)}-T[dR]SG[dNMeF]L[dR]E[dQ][dW]IT; ester 1-C)
Kd [1]: 5.6 µM
Antimicrobial activity (MIC) [2]: 4 µg/mL
MIC in 10% bovine serum [2]: 0.063 µg/mL (≈ 0.0389 µM)
fraction unbound [3]: < 0.01
MIC of lysocin E, Serum 0% (A) [4]: 4 µg/mL
MIC of lysocin E, Serum 10% (B) [4]: 0.13 µg/mL
MIC of lysocin E, Serum 0% (A) [5]: 4 µg/mL
MIC of lysocin E, Serum 10% (B) [5]: 0.13 µg/mL
MIC of lysocin E, Serum 0% (A) [6]: 4 µg/mL
MIC of lysocin E, Serum 10% (B) [6]: 0.13 µg/mL
MIC of lysocin E, Serum 0% (A) [7]: 2 µg/mL
MIC of lysocin E, Serum 10% (B) [7]: 0.063 µg/mL
MIC of lysocin E, Serum 0% (A) [8]: 4 µg/mL
MIC of lysocin E, Serum 10% (B) [8]: 0.13 µg/mL
MIC of lysocin E, Serum 0% (A) [9]: 2 µg/mL
MIC of lysocin E, Serum 10% (B) [9]: 0.50 µg/mL
MIC of lysocin E, Serum 0% (A) [10]: 4 µg/mL
MIC of lysocin E, Serum 10% (B) [10]: 0.25 µg/mL
MIC of lysocin E, Serum 0% (A) [11]: 4 µg/mL
MIC of lysocin E, Serum 10% (B) [11]: 0.13 µg/mL
MIC of lysocin E, Serum 0% (A) [12]: 2 µg/mL
MIC of lysocin E, Serum 10% (B) [12]: 0.25 µg/mL
MIC of lysocin E, Serum 0% (A) [13]: 2 µg/mL
MIC of lysocin E, Serum 10% (B) [13]: 0.13 µg/mL
MIC of lysocin E, Serum 0% (A) [14]: 4 µg/mL
MIC of lysocin E, Serum 10% (B) [14]: 0.13 µg/mL
MIC of lysocin E, Serum 0% (A) [15]: 4 µg/mL
MIC of lysocin E, Serum 10% (B) [15]: 0.13 µg/mL
MIC of lysocin E, Serum 0% (A) [16]: 2 µg/mL
MIC of lysocin E, Serum 10% (B) [16]: 0.0078 µg/mL
